From ChEMBL document CHEMBL1201862, “PubChem BioAssay data set” (2004)
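A five-concentration, 48-hour dose response in 96-well plates underlies each endpoint, interpolated linearly between surrounding concentrations. Here, GI50 denotes the concentration required for 50% inhibition of growth.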 Active and inactive are the calls of the source. Rule as the data show it: active = GI50 up to about 1.1 µM and inactive = higher.

Assays:
Assay in all cases: DTP human tumour cell line panel, 48 h
MCF7 = test system: MCF7
NCI-H460 = test system: NCI-H460
OVCAR-3 = test system: OVCAR-3
SF-539 = test system: SF-539
LOX IMVI = test system: LOX IMVI
EKVX = test system: EKVX
786-0 = test system: 786-0
MDA-MB-435 = test system: MDA-MB-435
A498 = test system: A498
HCT-15 = test system: HCT-15
OVCAR-4 = test system: OVCAR-4
SF-295 = test system: SF-295
K562 = test system: K562
MDA-MB-231 = test system: MDA-MB-231
NCI/ADR-RES = test system: NCI/ADR-RES
HT-29 = test system: HT-29
SNB-19 = test system: SNB-19
CCRF-CEM = test system: CCRF-CEM
RXF 393 = test system: RXF 393
HL-60 = test system: HL-60

| SMILES | GI50 (MCF7) | GI50 (NCI-H460) | GI50 (OVCAR-3) | GI50 (SF-539) | GI50 (LOX IMVI) | GI50 (EKVX) | GI50 (786-0) | GI50 (MDA-MB-435) | GI50 (A498) | GI50 (HCT-15) [µM] | GI50 (OVCAR-4) | GI50 (SF-295) | GI50 (K562) | GI50 (MDA-MB-231) | GI50 (NCI/ADR-RES) | GI50 (HT-29) | GI50 (SNB-19) | GI50 (CCRF-CEM) | GI50 (RXF 393) | GI50 (HL-60) |
| --- | --- | --- | --- | --- | --- | --- | --- | --- | --- | --- | --- | --- | --- | --- | --- | --- | --- | --- | --- | --- |
| COc1ccc(N2C(=O)C3c4[nH]c5cccc(Cl)c5c4C4CCC(C(C)(C)C)CC4C3C2=O)cc1 (stereo not drawn) | > 100 µM (inactive) | > 100 µM (inactive) | > 100 µM (inactive) | 64.7 µM (inactive) | > 100 µM (inactive) | > 100 µM (inactive) | 31.6 µM (inactive) | > 100 µM (inactive) | 74.1 µM (inactive) | > 100 | > 100 µM (inactive) | 47.2 µM (inactive) | > 100 µM (inactive) | > 100 µM (inactive) | > 100 µM (inactive) | > 100 µM (inactive) | 41.5 µM (inactive) | – | – | – |
| CCOC(=O)C1(C/C=C(/C)Cl)CCCC1=O (stereo not drawn) | – | > 100 µM (inactive) | > 100 µM (inactive) | > 100 µM (inactive) | > 100 µM (inactive) | > 100 µM (inactive) | > 100 µM (inactive) | – | > 100 µM (inactive) | 26.7 | > 100 µM (inactive) | > 100 µM (inactive) | > 100 µM (inactive) | – | – | > 100 µM (inactive) | > 100 µM (inactive) | > 100 µM (inactive) | > 100 µM (inactive) | 86.5 µM (inactive) |
| COC1=CC(=O)[C@H]2[C@H](C)C(c3ccccc3)[C@@]2(C)C1=O (stereo partly drawn) | – | > 100 µM (inactive) | > 100 µM (inactive) | > 100 µM (inactive) | > 100 µM (inactive) | > 100 µM (inactive) | > 100 µM (inactive) | – | > 100 µM (inactive) | > 100 | > 100 µM (inactive) | > 100 µM (inactive) | > 100 µM (inactive) | – | – | > 100 µM (inactive) | > 100 µM (inactive) | > 100 µM (inactive) | > 100 µM (inactive) | > 100 µM (inactive) |
| CN(C)c1ccc(C=C2C(=O)N(c3ccccc3)N(c3ccccc3)C2=O)cc1 | > 100 µM (inactive) | – | > 100 µM (inactive) | – | 76.6 µM (inactive) | > 100 µM (inactive) | 71.1 µM (inactive) | 81.1 µM (inactive) | > 100 µM (inactive) | > 100 | – | 63.4 µM (inactive) | 61.4 µM (inactive) | > 100 µM (inactive) | – | 72.8 µM (inactive) | 74.3 µM (inactive) | – | – | – |
| NC1=NN(c2ccccc2)C(=O)C1/C(=N\NC(=O)c1cc2ccccc2cc1O)C(=O)Nc1nc([N+](=O)[O-])cs1 (stereo not drawn) | – | 18.1 µM (inactive) | 30.1 µM (inactive) | 23.9 µM (inactive) | 18.4 µM (inactive) | 47.3 µM (inactive) | 31.5 µM (inactive) | – | 41.2 µM (inactive) | 24.3 | 33.7 µM (inactive) | 28.9 µM (inactive) | 9.64 µM (inactive) | – | – | 32.7 µM (inactive) | > 60.1 µM (inactive) | 17.3 µM (inactive) | 2.73 µM (inactive) | 8.81 µM (inactive) |
| COC(=O)C(CCS(=O)(=O)CC(=O)C(=O)Nc1cccc(C(C)=O)c1)C(=O)OC | – | > 53 µM (inactive) | > 100 µM (inactive) | > 100 µM (inactive) | > 61.9 µM (inactive) | > 100 µM (inactive) | > 100 µM (inactive) | – | > 100 µM (inactive) | > 72.1 | > 100 µM (inactive) | > 100 µM (inactive) | > 61 µM (inactive) | – | – | > 100 µM (inactive) | > 100 µM (inactive) | > 43.1 µM (inactive) | > 100 µM (inactive) | > 100 µM (inactive) |
| N#C/C(=C\c1cccc(Cl)c1Cl)c1ccccc1 | – | 58.9 µM (inactive) | 46.9 µM (inactive) | 35.1 µM (inactive) | > 75.9 µM (inactive) | > 69.5 µM (inactive) | 37.6 µM (inactive) | – | 34.6 µM (inactive) | > 57.4 | 61.5 µM (inactive) | 38.4 µM (inactive) | > 72.4 µM (inactive) | – | – | > 89.5 µM (inactive) | > 49.3 µM (inactive) | 39.3 µM (inactive) | 31 µM (inactive) | > 100 µM (inactive) |
| CC(C)=CCC/C(C)=C\CC/C(C)=C/CO | 19.3 µM (inactive) | > 10 µM (inactive) | 16.8 µM (inactive) | 21 µM (inactive) | > 10 µM (inactive) | 30.6 µM (inactive) | 17.4 µM (inactive) | 19.6 µM (inactive) | – | 40.1 | 26.2 µM (inactive) | 23.1 µM (inactive) | 19.7 µM (inactive) | 42 µM (inactive) | 13.7 µM (inactive) | 19.7 µM (inactive) | 18.5 µM (inactive) | 19.5 µM (inactive) | – | 17.1 µM (inactive) |
